Measured values reported in patent US20190117620A1, “CHEMOTHERAPY IMPROVEMENTS” (NOXOPHARM LIMITED, priority 2016, published 2019).

Key:
[1] = tested on: late-stage ovarian cancer; assay: Example 2: rectal dehydroequol with intravenous carboplatin in a patient with platin- and taxane-refractory late-stage ovarian cancer; format: in vivo, human; details: stated objective; dehydroequol 400 mg every 12 hours rectally for 7 days + carboplatin AUC 6 iv on Day 2, every 28 days, 6 courses
Text: A patient with late-stage ovarian cancer. Previously treated intravenously with multiple rounds of carboplatin and paclitaxel and now displaying multi-drug resistance by showing disease progression while undergoing combined therapy with carboplatin/paclitaxel. This patient meets the definition of platin- and taxane-refractory disease.
The patient is showing multiple tumours throughout the abdominal cavity and is suffering failing health although still considered sufficiently robust to withstand further cytotoxic chemotherapy were it considered likely to provide a benefit.
The patient is treated with 400 mg of dehydroequol every 12 hours for 7 consecutive days. The dehydroequol is administered rectally in a solid 2 gram suppository dosage form in a theobroma oil base.
Carboplatin is injected intravenously at a dosage equivalent to an AUC of 6 on Day 2 of the 7-day dehydroequol treatment regimen.
This regimen is repeated every 28 days for a total of 6 courses of treatment.

[2] = tested on: castrate-resistant metastatic prostate cancer; assay: Example 3: docetaxel course, with or without rectal dehydroequol as adjuvant, in castrate-resistant metastatic prostate cancer; format: in vivo, human; details: stated objective; dehydroequol 400 mg once daily rectally for 7 days as adjuvant to docetaxel 175 mg/m2 iv every 21 days
Method: A patient with castrate-resistant metastatic prostate cancer with secondary cancers in several inguinal lymph nodes and multiple bones (thoracic vertebrae, femur, ribs, humerus). Having progressed on hormone-ablation therapy, the standard next step for this patient is to receive a course of treatment with docetaxel involving an intravenous injection of a dosage of […] over 3 hours every 21 days for 18 weeks.
Dehydroequol is administered as adjuvant therapy at a dosage of 400 mg once daily for 7 consecutive days commencing on the day prior to the administration of docetaxel and repeated for the duration of the course of docetaxel therapy. The dehydroequol is administered rectally in a solid 2 gram suppository dosage form in a theobroma oil base.

[3] = tested on: castrate-resistant metastatic prostate cancer; details: docetaxel alone, standard course; response = complete remission, partial remission or no disease progression; cited from earlier work

SMILES | prolong the survival of the patient (additional) [1] | response rate (objective) [2] | response rate (reported) [3]
Oc1ccc(C2=Cc3ccc(O)cc3OC2)cc1 [dehydroequol, 2H-1-Benzopyran-7-0,1,3-(4-hydroxyphenyl)] | 12 months | 40-100% | –
CC(=O)O[C@@]12CO[C@@H]1C[C@H](O)[C@@]1(C)C(=O)[C@H](O)C3=C(C)[C@@H](OC(=O)[C@H](O)[C@@H](NC(=O)OC(C)(C)C)c4ccccc4)C[C@@](O)([C@@H](OC(=O)c4ccccc4)[C@H]21)C3(C)C [docetaxel] | – | – | 30%
